{"source": "patent US9045450B2", "about": "“Method for chemical synthesis of antrocin and use thereof for suppressing non-small cell lung cancer” (KAIYEW INVESTMENT CORP., priority 2011, dated 2015)", "key": {"[1]": {"tested_on": "H441 lung cancer cells", "experiment": "Microarray analysis of gene transcription in H441 cells after antrocin treatment", "assay_type": "cell-based, Homo sapiens", "conditions": "12 hours", "procedure": "(§1) The present invention further investigated the effect of antrocin on cancer cells at the genetic level. After H441 cells had been treated with 5 μM antrocin for 12 hours, the effect of antrocin on genetic transcription was analyzed. Only those genes whose expressions were inhibited 3.5 times or more were analyzed as target genes by GeneSpring software package and the results were presented using a tree diagram (FIG. 5). […] These genes play important roles in cell proliferations, inflammatory responses, metastases, invasions, angiogenesis, and cell cycle regulations. […] These genes are associated with transcription factor NF-kB, for example cytokines (IFI44, IFIT1, MX1), inflammatory responses (NFkB1 and IFIT2), stem cell properties (CTNNBL1, SENP2, CEACAM1 and POU5F2), and drug resistance reactions (ABCB5, ABCG2 and XAF1), etc. Based on the aforementioned microarray results, the present invention further investigated protein expressions associated with inflammation related factors, stem cell properties, and drug resistance related molecules.\nas §1, with “effect of Antrocin on genetic” for “effect of antrocin on genetic”, “a tree diagram. STRING9.0 software package was also used to predict the effect of antrocin on the signaling pathway of H441 cells and possible target genes to be inhibited (FIG. 5).” for “a tree diagram (FIG. 5).”, “example cytokines (1F144, IFIT1, MX1),” for “example cytokines (IFI44, IFIT1, MX1),”, “further investigated inflammatory responses, stem cell” for “further investigated protein expressions associated with inflammation related factors, stem cell”, “properties, and multidrug resistance-associated protein expressions.” for “properties, and drug resistance related molecules.”"}, "[2]": {"tested_on": "H441 cells", "experiment": "Apoptosis, flow cytometry", "assay_type": "cell-based, human", "conditions": "H441, antrocin treatment for 48 hours, FIG. 4 (B)"}, "[3]": {"tested_on": "H1975 cells", "experiment": "Apoptosis, flow cytometry", "assay_type": "cell-based, human", "conditions": "H1975, antrocin treatment for 48 hours, FIG. 4 (B)"}, "[4]": {"tested_on": "H441-L2G cells", "experiment": "Lung tumorigenesis in vivo, bioluminescence imaging and survival", "set-up": "species or system non-obese diabetic/severe combined immunodeficient mice", "conditions": "for tumor growth: daily intraperitoneal injection", "procedure": "(§2) […] cells (6×10^5/100 μl PBS) were intravenously injected into immunodeficient mice via lateral tail vein. Antrocin treatments (low dose of 5 mg/kg/day and high dose of 10 mg/kg/day) were performed by daily intraperitoneal injection into tumor-bearing mice over a period of four weeks. Weekly observations were performed and data were recorded for (A) VIS images, (B) Tumor growth, (C) Body weights, and (D) Survival curves.\n(§3) The present invention further investigated anticancer effect of antrocin in vivo. H441-L2G cells expressing firefly luciferase and green fluorescent protein were implanted by intravenous injections via the lateral tail vein (6×10^5/100 μl PBS) into non-obese diabetic/severe combined immunodeficient mice. Daily intraperitoneal injections of antrocin (two groups of mice, a low dose of 5 mg/kg/day and a high dose of 10 mg/kg/day) were given over a period of four weeks to observe tumor growth.\nFirefly luminescence genes (firefly luciferase) was introduced into H441 lung cancer stem cells by transgenesis, lung cancer cells (containing firefly luminescence genes) were then isolated from H441 lung cancer stem cells by FACS (Fluorescence-activated cell sorting) and implanted into immunodeficient mice subcutaneously or into the circulation system via the tail vein. IVIS imaging system (IVIS® Imaging System 200 Series, Xenogen) was used in the present embodiment for bioluminescent imaging. All mice were introduced with 150 mg/kg D-luciferin by intraperitoneal injection, after 10 minutes the mice were fixed in the darkroom of the IVIS200, the highly sensitive CCD camera of the IVIS 200 was used to detect the cold light radiated by firefly luminescence genes in H441 cancer cells. All mice were imaged for 120 seconds and the imaging time was shortened when the signal strength was saturated. All mice were anesthetized (2% isoflurane and 98% oxygen gas) and unconscious throughout the entire imaging process. Tumor sizes and signal strength radiated by the cold-light were compared and analyzed by using a software package of the IVI200. The inhibitory effect of antrocin on human lung cancer cells was assessed by using this bio-illumination-imaging system.\nas §3, with “investigated the” for “investigated”, “immunodeficiency” for “immunodeficient”, “small” for “low”, “large” for “high”"}, "[5]": {"experiment": "Body weight of tumor-bearing mice", "assay_type": "in vivo, non-obese diabetic/severe combined immunodeficient mice", "conditions": "5 and 10 mg/kg/day intraperitoneal, four weeks, FIG. 7 (C)", "procedure": "as §2, §3\nThe present invention further investigated the anticancer effect of antrocin in vivo. H441-L2G cells expressing firefly luciferase and green fluorescent protein were implanted by intravenous injections via the lateral tail vein (6×10^5/100 μl PBS) into non-obese diabetic/severe combined immunodeficiency mice. […]"}}, "note": "“Also recorded” adds a separate entry of the source.", "data": [{"smiles": "C=C1CC[C@H]2C(C)(C)CCC[C@@]23C(=O)OC[C@@H]13", "note": "[antrocin]", "values": [{"measurement": "number of genes whose expressions were significantly affected", "setting": "[1]; 5 μM antrocin", "value": "more than 100 genes"}, {"measurement": "Multiple (reduction of gene expression)", "setting": "[1]; ABCB5, probe 8137310, 5 μM antrocin", "value": 3.62}, {"measurement": "Multiple (reduction of gene expression)", "setting": "[1]; ABCG2, probe 8101675, 5 μM antrocin", "value": 3.93}, {"measurement": "Multiple (reduction of gene expression)", "setting": "[1]; AKT1S1, probe 8038477, 5 μM antrocin", "value": 10.29}, {"measurement": "Multiple (reduction of gene expression)", "setting": "[1]; ANG, probe 7973084, 5 μM antrocin", "value": 4.24}, {"measurement": "Multiple (reduction of gene expression)", "setting": "[1]; CDC14C, probe 8132803, 5 μM antrocin", "value": 5.49}, {"measurement": "Multiple (reduction of gene expression)", "setting": "[1]; CEACAM1, probe 8037205, 5 μM antrocin", "value": 4.99}, {"measurement": "Multiple (reduction of gene expression)", "setting": "[1]; CXCL10, probe 8101126, 5 μM antrocin", "value": 4.62}, {"measurement": "Multiple (reduction of gene expression)", "setting": "[1]; EDG7, probe 7917276, 5 μM antrocin", "value": 3.75}, {"measurement": "Multiple (reduction of gene expression)", "setting": "[1]; EPSTI1, probe 7971296, 5 μM antrocin", "value": 5.61}, {"measurement": "Multiple (reduction of gene expression)", "setting": "[1]; FLJ35880, probe 8082585, 5 μM antrocin", "value": 5.48}, {"measurement": "Multiple (reduction of gene expression)", "setting": "[1]; FOSL1, probe 7949532, 5 μM antrocin", "value": 9.93}, {"measurement": "Multiple (reduction of gene expression)", "setting": "[1]; GDPD1, probe 8008802, 5 μM antrocin", "value": 3.73}, {"measurement": "Multiple (reduction of gene expression)", "setting": "[1]; IFI16, probe 7906400, 5 μM antrocin", "value": 4.9}, {"measurement": "Multiple (reduction of gene expression)", "setting": "[1]; IFI44, probe 7902553, 5 μM antrocin", "value": 8.3}, {"measurement": "Multiple (reduction of gene expression)", "setting": "[1]; IFIT1, probe 7929065, 5 μM antrocin", "value": 5.28}, {"measurement": "Multiple (reduction of gene expression)", "setting": "[1]; IFIT2, probe 7929047, 5 μM antrocin", "value": 4.44}, {"measurement": "Multiple (reduction of gene expression)", "setting": "[1]; IFITM2, probe 7937330, 5 μM antrocin", "value": 6.16}, {"measurement": "Multiple (reduction of gene expression)", "setting": "[1]; LAMP3, probe 8092348, 5 μM antrocin", "value": 3.8}, {"measurement": "Multiple (reduction of gene expression)", "setting": "[1]; LBA1, probe 8086125, 5 μM antrocin", "value": 4.35}, {"measurement": "Multiple (reduction of gene expression)", "setting": "[1]; LILRA3, probe 8039226, 5 μM antrocin", "value": 4.58}, {"measurement": "Multiple (reduction of gene expression)", "setting": "[1]; MX1, probe 8068713, 5 μM antrocin", "value": 5.42}, {"measurement": "Multiple (reduction of gene expression)", "setting": "[1]; NFKB1, probe 8096635, 5 μM antrocin", "value": 3.85}, {"measurement": "Multiple (reduction of gene expression)", "setting": "[1]; OAS2, probe 7958913, 5 μM antrocin", "value": 5.91}, {"measurement": "Multiple (reduction of gene expression)", "setting": "[1]; OASL, probe 7967117, 5 μM antrocin", "value": 4.09}, {"measurement": "Multiple (reduction of gene expression)", "setting": "[1]; OR1L8, probe 8163960, 5 μM antrocin", "value": 3.83}, {"measurement": "Multiple (reduction of gene expression)", "setting": "[1]; PARP9, probe 8090018, 5 μM antrocin", "value": 4.03}, {"measurement": "Multiple (reduction of gene expression)", "setting": "[1]; PARP14, probe 8082100, 5 μM antrocin", "value": 4.3}, {"measurement": "Multiple (reduction of gene expression)", "setting": "[1]; POU5F2, probe 8113094, 5 μM antrocin", "value": 3.9}, {"measurement": "Multiple (reduction of gene expression)", "setting": "[1]; PPARGC1A, probe 8099633, 5 μM antrocin", "value": 4.44}, {"measurement": "Multiple (reduction of gene expression)", "setting": "[1]; RTP4, probe 8084732, 5 μM antrocin", "value": 4.6}, {"measurement": "Multiple (reduction of gene expression)", "setting": "[1]; SAMD9L, probe 8140971, 5 μM antrocin", "value": 4.08}, {"measurement": "Multiple (reduction of gene expression)", "setting": "[1]; SENP2, probe 8084607, 5 μM antrocin", "value": 8.9}, {"measurement": "Multiple (reduction of gene expression)", "setting": "[1]; SIGLEC5, probe 8038877, 5 μM antrocin", "value": 4.94}, {"measurement": "Multiple (reduction of gene expression)", "setting": "[1]; SLFN5, probe 8006531, 5 μM antrocin", "value": 3.65}, {"measurement": "Multiple (reduction of gene expression)", "setting": "[1]; TAX1BP3, probe 8011407, 5 μM antrocin", "value": 7.15}, {"measurement": "Multiple (reduction of gene expression)", "setting": "[1]; TNFSF10, probe 8092169, 5 μM antrocin", "value": 4.09}, {"measurement": "Multiple (reduction of gene expression)", "setting": "[1]; TRIM22, probe 7938035, 5 μM antrocin", "value": 7.65}, {"measurement": "Multiple (reduction of gene expression)", "setting": "[1]; XAF1, transcript variant 1, probe 8004184, 5 μM antrocin", "value": 12.61}, {"measurement": "Multiple (reduction of gene expression)", "setting": "[1]; ZC3H6, probe 8044450, 5 μM antrocin", "value": 3.5}, {"measurement": "Multiple (reduction of gene expression)", "setting": "[1]; cDNA DKFZp451O2417, probe 7902541, 5 μM antrocin", "value": 10.74}, {"measurement": "Multiple (reduction of gene expression)", "setting": "[1]; catenin, beta like 1 (TNNBL1), probe 8062409, 5 μM antrocin", "value": 3.59}, {"measurement": "number of cells in early and late (final) stage of apoptosis", "setting": "[2]", "value": "increase in the number of cells in early and late stage of apoptosis in a dose-dependent fashion; also recorded: increased significantly in a dose-dependent fashion"}, {"measurement": "number of cells in early and late (final) stage of apoptosis", "setting": "[3]", "value": "increase in the number of cells in early and late stage of apoptosis in a dose-dependent fashion; also recorded: increased significantly in a dose-dependent fashion"}, {"measurement": "increase of median survival time", "setting": "[4]; at the end of the experiment (the fiftieth day)", "value": "at least 60%"}, {"measurement": "mice that survived for longer than 50 days", "setting": "[4]; low dose 5 mg/kg/day", "value": 75, "unit": "%"}, {"measurement": "tumor growth", "setting": "[4]; low dose 5 mg/kg/day, after two weeks", "value": "inhibited after two weeks in half of the mice"}, {"measurement": "tumor growth", "setting": "[4]; low dose 5 mg/kg/day, third week", "value": "tumor growth was observed in most of these mice"}, {"measurement": "median survival", "setting": "[4]; treated group, control group 28 days, FIG. 7 (D)", "value": "> 50", "unit": "days"}, {"measurement": "body weight, treated group vs control group", "setting": "[5]", "value": "no significant difference"}]}]}
